These results are taken from US20060240026A1, “Preventing and/or remedy hematopoietic tumor” (GREEN PEPTIDE CO., LTD., priority 2003, published 2006).

Several values for one entry are separate records, joined by “and”; a condition that tells them apart may be missing. Identical values can stand only once. Ends that are not written are not given here.

Series [1] has as its system HLA-A24+ hematologic malignant cell line (PEER, REH). As to the kind of experiment: 51Cr-release test of peptide-stimulated PBMCs against HLA-A24+ malignant line. Format: cell-based, human. The following applies: peptide-stimulated patient PBMCs further cultured with IL-2, effector/target 3, 10 or 30, 6 h. Here is the method:
Then, the cytotoxicity against hematologic malignant cell lines was examined by a standard ^51Cr-release test (Non-Patent Reference 5). Specifically, the PBMCs obtained were used as an effector to mix with ^51Cr-labelled target cells (hereinafter referred to as targets) at an effector/target rate of 3, 10 or 30, and then incubated for six hours, followed by measuring the radioactivity of ^51Cr released in the supernatants. The results obtained were indicated as % lysis which was calculated by regarding a radioactivity as 100% when the targets were completely dissolved. The following targets were used: PEER, an HLA-A24^+ hematologic malignant cell line; HPB-MLT, an HLA-A24^− hematologic malignant cell line; and an HLA-A24^+ PHA blastoid T-cell.

The subject of series [2] is C1R-A24 cells pulsed with the peptides. Briefly: Peptide-specific cytotoxic activity of PBMCs of vaccinated multiple myeloma patient (51Cr-release). Format: in vivo, human. The note with it: for peptide-specific cytotoxic activity of PBMCs: MM patient No. 6, PBMCs acquired after the sixth vaccination; for cytotoxic activity (% lysis) against C1R-A24 cells pulsed with corresponding peptide: MM patient No. 6, with the increasing number of peptide vaccination. The source says:
The patient (patient No. 6 in table 2) subjected to clinical trials was a HLA-A24^+ […] suffering from IgA-type multiple myeloma with a stage III by Durie & Salmon's classification. The patient received multiple cycles of chemotherapy before participating in this clinical test and had acquired the resistance to chemotherapy. However, for four weeks before peptide vaccination, the patient had not received chemotherapy and administration with steroid or any other immunosuppressive drugs.
Three kinds of emulsions each of which contains each of these peptides respectively and an adjuvant were prepared according to the method described in Example 1, and vaccinated to the patient by injecting subcutaneously at different sites of the patient's lateral thigh. […] The skin test was conducted by injecting intradermally the solution of 50 μg of each peptide in physiological saline and determining immediate-type or delayed-type hypersensitivity reaction at 20 minutes or 24 hours after the injection.
The vaccinations were conducted seven times every two weeks using SART-1690 (SEQ ID NO: 4), Lck488 (SEQ ID NO: 2) and ART-1170 (SEQ ID NO: 10). The cytotoxic activity of PBMCs acquired after the sixth vaccination was measured according to the in vitro test described in Example 3. […] Therefore, in the eighth and later vaccinations, three kinds of emulsions each of which contains SART-1690 (SEQ ID NO: 4), Lck488 (SEQ ID NO: 2) or Lck208 (SEQ ID NO: 1) and an adjuvant were prepared according to the method described in Example 1 and used.
After the vaccinations, PBMCs derived from the patient were studied for their peptide-specific cytotoxic activity by ^51Cr-release test using C1R-A24 cells pulsed with the peptides used. […] On the other hand, their cytotoxic activity was extremely low against RPMI-8226 that is an HLA-A24^− myeloid cell line.

Series [3] deals with PBMCs of HLA-A24+ patients with hematologic malignancies. Briefly: IFN-γ production by peptide-stimulated patient PBMCs in response to peptide-pulsed C1R-A24 cells. Format: cell-based, human. Details: peptide-specific IFN-γ production: unit not given here. The following applies: for peptide-specific IFN-γ production: 10 μM peptide in vitro, vs peptide-pulsed C1R-A24, HIV-peptide background subtracted; for Responding case/total (enhancement of IFN-γ production): ten HLA-A24+ patients with hematologic malignancies. As to the method:
The induction of peptide-specific cytotoxic T lymphocytes from PBMCs of a patient with hematologic malignancy was conducted as reported preveously (Non-Patent Reference 5). The following peptides were used to induce cytotoxic T lymphocytes: p56^lck protein-derived peptides (Lck208 (SEQ ID NO: 1), Lck488 (SEQ ID NO: 2) and Lck486 (SEQ ID NO: 3)); SART-1-derived peptide (SART-1690 (SEQ ID NO: 4)); SART-2-derived peptides (SART-293 (SEQ ID NO: 5), SART-2161 (SEQ ID NO: 6) and SART-2899 (SEQ ID NO: 7)); SART-3-derived peptides (SART-3109 (SEQ ID NO: 8) and SART-3315 (SEQ ID NO: 9)); and ART-1-derived peptide (ART-1170 (SEQ ID NO: 10)). All of these peptides are the epithelial cancer-related antigen-derived peptides and have the ability to induce cytotoxic T lymphocytes from PBMCs of an epithelial cancer patient in an HLA-A24 dependent manner (Non-Patent References 3-6 and 12). A human immunodeficiency virus (HIV)-derived peptide (SEQ ID NO: 11) and Epstein-Barr virus (EBV)-derived peptide (SEQ ID NO: 12) were used respectively as a negative control peptide and positive control peptide both of which have an HLA-A24-binding motif. […] PBMCs were prepared from peripheral blood that was collected from a patient with hematologic malignancy using Ficoll-Conray density-gradient centrifugation. The expression of HLA-A24 molecules on PBMCs was determined using flow cytometry by a well known method (Non-Patent Reference 5). The induction of cytotoxic T lymphocytes from PBMCs was conducted as follows. […] The culture medium consisted of 45% RPMI-1640, 45% AIM-V (Invitrogen), 10% FCS, 100 U/ml of interleukin-2 (IL-2), and 0.1 mM MEM non-essential amino acid solution (Invitrogen). […] The background IFN-γ production in response to the HIV-derived peptide (SEQ ID NO: 11) was subtracted from the values given in the data. When the mean value of the IFN-γ produced from the peptide-stimulated PBMCs in response to a corresponding peptide was higher than that produced in response to the HIV peptide (SEQ ID NO: 11), it was judged that the precursor of a peptide-specific cytotoxic T lymphocyte was present in the PBMCs and that the peptide-specific cytotoxic T lymphocytes were induced by the peptide. PBMCs of ten cases of HLA-A24^+ patients with hematologic malignancies (two cases with CLL, one case with MCL, one case with NHL, one case with B-ALL, one case with MM, one case with MDS, two cases with ATL, and one case with T-ALL) were tested for the induction of cytotoxic T lymphocytes using peptides that were derived from p56^lck protein, SART-1, SART-2, SART-3 and ART-1. The peptides used were the peptides that induced peptide-specific tumor-reactive cytotoxic T lymphocytes from PBMCs of an HLA-A24^+ epithelial cancer patient, which are currently on clinical trials for use as vaccines for epithelial cancer patients. The PBMCs were stimulated with the peptide in vitro to measure the peptide-specific IFN-γ production.

For the molecule `CSCC[C@H](NC(=O)[C@H](Cc1ccccc1)NC(=O)[C@@H](NC(=O)[C@@H]1CCCN1C(=O)CNC(=O)[C@H](Cc1ccc(O)cc1)NC(=O)[C@@H](N)[C@@H](C)O)C(C)C)C(=O)N[C@@H](CS)C(=O)N[C@@H](CC(C)C)C(=O)O` [EBV, reference compound], the “cytotoxic activity (% lysis) against HLA-A24+ hematologic malignant line” value is given as “not observed” in series [1] (listed as EBV derive peptides), “exhibited no cytotoxic activity” in series [1] (listed as EBV-derived peptide) and “exhibited no cytotoxic activity” in series [1] (listed as Epstein-Barr virus (EBV)-derived peptide).

For the molecule “Lck208: p56lck protein-derived peptide, N-terminal residue at position 208; epithelial cancer-related antigen peptide (HYTNASDGL; Partial peptide of p56lck protein)”, the “peptide-specific cytotoxic activity of PBMCs” value in series [2] was “observed”. In addition, the “cytotoxic activity (% lysis) against C1R-A24 cells pulsed with corresponding peptide” value in series [2] is “enhanced induction of cytotoxic activity”. Further, the “peptide-specific IFN-γ production” value is 0 in series [3] (PBMCs of patient #1 CLL); 2 in series [3] (PBMCs of patient #2 CLL); 22 in series [3] (PBMCs of patient #3 MCL); 30 in series [3] (PBMCs of patient #4 NHL); 0 in series [3] (PBMCs of patient #5 B-ALL); 0 in series [3] (PBMCs of patient #6 MM). The “peptide-specific IFN-γ production” value worked out at 0 in series [3] (PBMCs of patient #7 MDS), 0 in series [3] (PBMCs of patient #8 ATL), 445 in series [3] (PBMCs of patient #9 ATL) and 153 in series [3] (PBMCs of patient #10 T-ALL). Besides, the “Responding case/total (enhancement of IFN-γ production)” value (“Responding case/total” below) in series [3] is “two and 2/10”.

In the case of “Lck488: p56lck protein-derived peptide; epithelial cancer-related antigen peptide (DYLRSVLEDF; Partial peptide of p56lck protein)”, in series [2], the “peptide-specific cytotoxic activity of PBMCs” value is recorded as “observed”. In addition, in series [2], the “cytotoxic activity (% lysis) against C1R-A24 cells pulsed with corresponding peptide” value is reported as “enhanced induction of cytotoxic activity”. In addition, the “peptide-specific IFN-γ production” value worked out at 0 in series [3] (PBMCs of patient #1 CLL); 0 in series [3] (PBMCs of patient #2 CLL); 0 in series [3] (PBMCs of patient #3 MCL); 0 in series [3] (PBMCs of patient #4 NHL); 6 in series [3] (PBMCs of patient #5 B-ALL); 182 in series [3] (PBMCs of patient #6 MM). Further, the “peptide-specific IFN-γ production” value is listed as 102 in series [3] (PBMCs of patient #7 MDS), 476 in series [3] (PBMCs of patient #8 ATL), 304 in series [3] (PBMCs of patient #9 ATL) and 0 in series [3] (PBMCs of patient #10 T-ALL). In addition, the “Responding case/total” value in series [3] is “four and 4/10”.

For RYLRDQQLLGI [HIV, reference compound], the “cytotoxic activity (% lysis) against HLA-A24+ hematologic malignant line” value is reported as “not observed” in series [1] (listed as HIV-derived peptide) and “exhibited no cytotoxic activity” in series [1] (listed as human immunodeficiency virus (HIV)-derived peptide).

Turning to “SART-1690: SART-1-derived peptide; epithelial cancer-related antigen peptide (EYRGFTQDF; Partial peptide of SART-1)”, in series [2], the “peptide-specific cytotoxic activity of PBMCs” value is on record as “observed”. The “peptide-specific IFN-γ production” value in series [3] (PBMCs of patient #1 CLL) came out at 0; in series [3] (PBMCs of patient #2 CLL) it was 486; in series [3] (PBMCs of patient #3 MCL), 0; in series [3] (PBMCs of patient #4 NHL), 53; in series [3] (PBMCs of patient #5 B-ALL) it was 8; in series [3] (PBMCs of patient #6 MM) it was 141. The “peptide-specific IFN-γ production” value stood at 0 in series [3] (PBMCs of patient #7 MDS), 55 in series [3] (PBMCs of patient #8 ATL), 155 in series [3] (PBMCs of patient #9 ATL) and 26 in series [3] (PBMCs of patient #10 T-ALL). Further, the “Responding case/total” value in series [3] is 3/10.

Turning to “SART-3315: SART-3-derived peptide; epithelial cancer-related antigen peptide (AYIDFEMKI; Partial peptide of SART-3)”, the “peptide-specific IFN-γ production” value in series [3] (PBMCs of patient #1 CLL) turned out to be 39; in series [3] (PBMCs of patient #2 CLL), 137; in series [3] (PBMCs of patient #3 MCL), 6; in series [3] (PBMCs of patient #4 NHL) it was 0; in series [3] (PBMCs of patient #5 B-ALL) it was 11; in series [3] (PBMCs of patient #6 MM) it was 0. Also, the “peptide-specific IFN-γ production” value is recorded as 0 in series [3] (PBMCs of patient #7 MDS), 22 in series [3] (PBMCs of patient #8 ATL), 60 in series [3] (PBMCs of patient #9 ATL) and 6 in series [3] (PBMCs of patient #10 T-ALL). Further, in series [3], the “Responding case/total” value was 1/10.
